Values joined by “and” are separate entries in the source; they are usually repeats but may differ in a detail not shown here. Equal values may be shown once.
Test system: 855422-203-R-J1-PDC complex spheroid viability
Assay: Anticancer human tumor 855422-203-R-J1-PDC patient-derived bladder carcinoma cell line growth inhibition
Conditions: for viability, T/C: stronger effect = lower value
From the text: Multicellular complex tumor spheroid response to LSD1 Inhibitor Iadademstat in combination with a variety of drugs and investigational agents in selected tumor cell lines
The current study was undertaken to assess response to LSD1 inhibitors in combination with standard-of-care drugs and investigational agents in solid tumor complex spheroid models as well as in the K-562 leukemia. Complex spheroids include a stromal component modeled by human endothelial cells (HUVEC) and fibroblasts modeled by human mesenchymal stem cells (MSCs). The concentration ranges selected for each drug and investigational agent were based upon clinically achievable concentrations if the clinical Cmax of the agent was known.
Compounds. The drugs and investigational agents used in this study are listed on Table 1. All of the agents used, including staurosporine (NSC755774) and gemcitabine (NSC613327), were obtained from the Developmental Therapeutics Program, NCI. FDA-approved anticancer drugs are available from the NCI at http://dtp.nci.nih.gov/branches/dscb/oncology_drugset_explanation.html. Drugs and investigational agents were >95% pure by proton nuclear magnetic resonance (NMR) and liquid chromatography/mass spectrometry (LC/MS). Stock solutions were prepared at 400x in DMSO, stored at -70 degrees C, and diluted in fresh medium prior to their use. The final concentration of DMSO in cell culture wells never exceeded 0.25% (v/v). The FDA-approved anticancer drug set is available from the Developmental Therapeutics Program at https://dtp.cancer.gov/organization/dscb/obtaining/available_plates.htm. All drugs and investigational agents were tested over a range starting from a high concentration at or near the clinical Cmax and decreasing in half-log increments. If the clinical Cmax for an agent had not been determined, the highest concentration tested was 10 microM.
Cell Lines. The patient-derived cancer cell (PDC) lines: 292921-168-R-J2-PDC, K24384-001-R-PDC, and 521955-158-R2-J5-PDC pancreatic carcinomas, 556581-035-R-J1 ovarian carcinoma, 324938-238-R-J1-PDC, 855422-203-R-J1-PDC and 883617-216-R-J1-PDC urothelial bladder carcinomas, 743489-274-T-PDC renal cell carcinoma, 138582-R-J1 Merkel cell tumor, K60290-347-R-J1 and K57222-313-R-J1-PDC glioblastomas, 653999-131-R-J2-PDC, LG0703-F948-PDC, and 349418-098-R-PDC non-small cell lung carcinomas, 885512-296-R-J2-PDC, 171881-019-R-J1-PDC breast carcinomas and 186277-243-T-J2-PDC and 233499-124-R-J2-PDC colon carcinomas were obtained from the NCI Patient-Derived Models Repository (PDMR, https://pdmr.cancer.gov). The established cell lines NCI/ADR-RES (RRID:CVCL_14520 and OVCAR-5 (RRID:CVCL_1628) ovarian carcinomas, 786-O (RRID:CVCL_1051) and A498 (RRID:CVCL_A498) renal cell carcinoma, NCI-H211 (ATCC, cat. CRL-5824; RRID:CVCL_1529), NCI-H196 (ATCC, cat. CRL-5823, RRID:CVCL_1509), SW 1271 (ATCC, cat. CRL-2177, RRID:CVCL_1716) and NCI-H1876 (ATCC, cat. CRL-5902, RRID:CVCL_1503) small cell lung carcinomas, MDA-MB-231 (RRID:CVCL_0062) and MDA-MB-468 (RRID:CVCL_0419)breast carcinomas (10-12). Pooled donor human umbilical vein endothelial cells (HUVEC, Lonza, cat. CC-2519) and human mesenchymal stem cells (hMSC, Lonza, cat. PT-2501) were purchased from Lonza (Walkersville, MD).
Cell Culture. All cells were maintained in an incubator at 37 degrees C and 5% CO2 with 95% humidity. The PDC lines were cultured according to standard operating procedures established by the NCI PDMR (https://pdmr.cancer.gov). Briefly all PDCs were thawed and cultured in Matrigel-coated flasks prepared with a working solution of 1X Ham's F-12 nutrient mix, without supplementation (Invitrogen, Waltham, MA, cat. 11765054), 100 U/mL penicillin-streptomycin (Invitrogen, cat. 15140122), and 2.5% Matrigel (Corning Inc., Corning, NY, cat. 354248) for the first three passages. […]
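Note: drug exposure lasted 7 days starting on day 3 after seeding.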
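Throughout, for viability, T/C: luminescence viability as percent of DMSO vehicle wells = 100%.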

| SMILES | viability, T/C (compound 0.00316 µM) | viability, T/C (compound 0.01 µM) | viability, T/C (compound 0.0316 µM) | viability, T/C (compound 0.1 µM) | IC50 (curve of compound) | viability, T/C (compound 0.316 µM) | viability, T/C (compound 1 µM) | viability, T/C (compound 0.00949 µM) | viability, T/C (compound 0.03 µM) | viability, T/C (compound 0.0949 µM) | viability, T/C (compound 0.3 µM) | other results |
| --- | --- | --- | --- | --- | --- | --- | --- | --- | --- | --- | --- | --- |
| CC(C)CC(NC(=O)C(Cc1ccccc1)NC(=O)c1cnccn1)B(O)O (configuration not stated) | 0.11% and 0.13% | 0.1% and 0.12% | 0.09% and 0.13% | 0.14% and 0.2% | 0.538 nM and 0.61 nM |  |  |  |  |  |  | viability, T/C (compound 0.000316 µM): 90.9% and 115%; viability, T/C (compound 0.001 µM): 2.15% and 1.03% |
| CC(C)CC(NC(=O)CNC(=O)c1cc(Cl)ccc1Cl)B1OC(=O)CC(CC(=O)O)(C(=O)O)O1 (configuration not stated) | 6.4% and 3.59% | 1.38% and 0.62% | 0.11% and 0.19% | 0.17% and 0.19% | 1.55 nM and 1.88 nM |  |  |  |  |  |  | viability, T/C (compound 0.000316 µM): 105%; viability, T/C (compound 0.001 µM): 76.8% and 109% |
| CC(C)c1c(-c2ccccc2)nc2c(C#N)c[nH]n2c1=O |  |  | 98.3% and 101% | 104% and 106% | > 10000 nM | 96.1% and 107% | 104% and 99.9% |  |  |  |  | viability, T/C (compound 3.16 µM): 94.5% and 99.2%; viability, T/C (compound 10 µM): 95.4% and 90.9% |
| CC1(C)CCC(CN2CCN(c3ccc(C(=O)NS(=O)(=O)c4ccc(NCC5CCOCC5)c([N+](=O)[O-])c4)c(Oc4cnc5[nH]ccc5c4)c3)CC2)=C(c2ccc(Cl)cc2)C1 |  |  | 102% and 97.3% | 105% and 94.6% | 5550 nM and 5570 nM | 104% and 110% | 103% and 107% |  |  |  |  | viability, T/C (compound 3.16 µM): 80.6% and 83.9%; viability, T/C (compound 10 µM): 17.9% and 15.2% |
| CC1COCCN1c1cc(-c2ccnn2C)c2ccnc(-c3ccn[nH]3)c2n1 (configuration not stated) | 98.3% and 96.7% | 90.6% and 99.5% | 90.2% and 105% | 46% and 48.9% | 91 nM and 97.7 nM | 32.3% and 26% | 25.3% and 22.9% |  |  |  |  |  |
| CC1COCCN1c1cc(C2(S(C)(=N)=O)CC2)nc(-c2ccnc3[nH]ccc23)n1 (configuration not stated) |  |  | 108% and 93.8% | 99.9% and 93.1% | 2760 nM and 2310 nM | 101% and 94.4% | 84.9% and 85.9% |  |  |  |  | viability, T/C (compound 3.16 µM): 45% and 36.6%; viability, T/C (compound 10 µM): 40.7% and 35% |
| CCN(c1cc(-c2ccc(CN3CCOCC3)cc2)cc(C(=O)NCc2c(C)cc(C)[nH]c2=O)c1C)C1CCOCC1 |  |  |  |  | > 3000 nM |  |  | 105% and 109% | 95.1% and 101% | 94.6% and 97.5% | 86.5% and 91.6% | viability, T/C (compound 0.949 µM): 88% and 88.5%; viability, T/C (compound 3 µM): 84.7% and 89% |
| CC[C@@]1(O)C(=O)OCc2c1cc1n(c2=O)Cc2cc3c(CN(C)C)c(O)ccc3nc2-1 | 89.8% and 94.5% | 35.8% and 39.8% | 25.6% and 21.1% | 14.6% and 14.9% | 7.4 nM and 8.07 nM |  |  |  |  |  |  | viability, T/C (compound 0.000316 µM): 90.1% and 96.8%; viability, T/C (compound 0.001 µM): 95.2% and 97.2% |
| CCc1c2c(nc3ccc(O)cc13)-c1cc3c(c(=O)n1C2)COC(=O)[C@]3(O)CC |  |  |  |  | < 0.949 nM |  |  | 6.95% and 8.29% | 5.21% and 4.8% | 3.58% and 2.82% | 1.67% and 10.8% | viability, T/C (compound 0.000949 µM): 14.2% and 14.1%; viability, T/C (compound 0.003 µM): 10.3% and 11.1% |
| COc1cc(C2c3cc4c(cc3C(OC3OC5COC(C)OC5C(O)C3O)C3COC(=O)C23)OCO4)cc(OC)c1O (configuration not stated) |  |  |  |  | 138 nM and 148 nM |  |  | 88.6% and 97.5% | 79.6% and 102% | 61% and 58.4% | 28.3% and 31.1% | viability, T/C (compound 0.949 µM): 13.5% and 15.1%; viability, T/C (compound 3 µM): 6.36% and 6.7% |
| COc1cc(Nc2ncc3c(n2)-c2ccc(Cl)cc2C(c2c(F)cccc2OC)=NC3)ccc1C(=O)O | 95.3% and 91.3% | 96.3% and 104% | 80.6% and 79.7% | 79.5% and 71.7% | > 1000 nM | 62.2% and 59.5% | 63.8% and 64.5% |  |  |  |  |  |
| COc1ccc([C@@H](O)c2cc(-c3ncnc4cc(N5CCOCC5)ccc34)c(F)cc2Cl)nn1 |  |  | 95% and 94.1% | 94.7% and 94.4% | 4480 nM and 6680 nM | 79.5% and 92.2% | 74.3% and 85.5% |  |  |  |  | viability, T/C (compound 3.16 µM): 53.7% and 69.3%; viability, T/C (compound 10 µM): 38.6% and 39.6% |
| Cn1ncnc1C1c2n[nH]c(=O)c3cc(F)cc(c23)NC1c1ccc(F)cc1 (configuration not stated) | 95.8% and 84.2% | 95.8% and 73.8% | 89.2% and 86.2% | 81.8% and 86.8% | > 100 nM |  |  |  |  |  |  | viability, T/C (compound 0.000316 µM): 114% and 96.5%; viability, T/C (compound 0.001 µM): 89% and 83.3% |
| NC1CC1c1ccc(-c2cccc(O)c2)cc1 (configuration not stated) |  |  |  | 84.2% |  | 93.7% [middle of 25 runs] | 90.2% [middle of 25 runs] |  |  |  |  | IC50 (compound alone, run of 12/07/2021): > 10000 nM |
| NC1CCC(NC2CC2c2ccccc2)CC1 (configuration not stated) |  |  |  | 89.9% [middle of 25 runs] |  | 96.7% and 90.2% | 86.6% [middle of 25 runs] |  |  |  |  | viability, T/C (compound 3.16 µM): 87.7% [middle of 25 runs]; viability, T/C (compound 10 µM): 78.7% [middle of 23 runs]; IC50 (compound alone, run of 11/29/2021): > 10000 nM |
| NS(=O)(=O)OCC1CC(n2ccc3c(NC4CCc5ccccc54)ncnc32)CC1O (configuration not stated) |  |  |  |  | 436 nM and 668 nM |  |  | 97.8% and 103% | 81% and 96.5% | 81.1% and 100% | 63.5% and 87.5% | viability, T/C (compound 0.949 µM): 25.4% and 33.6%; viability, T/C (compound 3 µM): 9.22% and 9.95% |
| Nc1ccccc1NC(=O)c1ccc(CNC(=O)OCc2cccnc2)cc1 |  |  |  |  | 1510 nM and 1300 nM |  |  | 92.6% and 94.4% | 100% and 97% | 106% and 105% | 90.8% and 101% | viability, T/C (compound 0.949 µM): 75.4% and 64%; viability, T/C (compound 3 µM): 13.4% and 13.2% |
| Nc1ccn(C2OC(CO)C(O)C2(F)F)c(=O)n1 (configuration not stated) |  |  |  |  | 5.5 nM and 4.42 nM |  |  | 37.2% and 35.9% | 36.1% and 29.9% | 29.3% and 22% | 19.9% and 16.3% | viability, T/C (compound 0.000949 µM): 90.2% and 96.5%; viability, T/C (compound 0.003 µM): 59.8% and 55% |
| Nc1ncn(C2CC(O)C(CO)O2)c(=O)n1 (configuration not stated) | 101% and 96.5% | 92.3% and 88.8% | 81.1% and 89% | 86.6% and 94% | > 1000 nM | 80.8% and 94.5% | 78% and 87% |  |  |  |  |  |
| Nc1ncn(C2CC(O)C(CO)S2)c(=O)n1 (configuration not stated) |  |  |  |  | > 300 nM |  |  | 88.5% and 95.2% | 84.7% and 98% | 82.8% and 102% | 79.9% and 83.6% | viability, T/C (compound 0.000949 µM): 106% and 93.8%; viability, T/C (compound 0.003 µM): 91.9% and 98.4% |
| O=C(C=Cc1cccc(S(=O)(=O)Nc2ccccc2)c1)NO |  |  |  |  | 399 nM and 444 nM |  |  | 90.4% and 96.6% | 104% and 108% | 82% and 112% | 64.3% and 65.9% | viability, T/C (compound 0.949 µM): 12.3% and 17.6%; viability, T/C (compound 3 µM): 0.4% and 0.43% |
| O=C(C=Cn1cnc(-c2cc(C(F)(F)F)cc(C(F)(F)F)c2)n1)NNc1cnccn1 | 124% and 114% | 125% and 86.4% | 52.5% and 44.8% | 43.6% and 32.7% | 37.5 nM and 29.4 nM | 38.7% and 27.1% | 25% and 18.6% |  |  |  |  |  |
| O=C(c1cc(Cc2n[nH]c(=O)c3ccccc23)ccc1F)N1CCN(C(=O)C2CC2)CC1 |  |  | 88.5% and 98.6% | 94.1% and 111% | > 10000 nM | 96% and 110% | 88.8% and 98.8% |  |  |  |  | viability, T/C (compound 3.16 µM): 86.5% and 91.7%; viability, T/C (compound 10 µM): 63.3% and 76.1% |

From PubChem BioAssay AID1918943 (Molecular Pharmacology Branch, DTP, NCI, 2023)
